pEC50, pIC50: −log10 of the molar value.
Columns and labels:
PDK1 kinase = biological target: T1, PDK1 kinase (Homo sapiens, UniProt O15530); assay: PDK1 Kinase Alpha Screen Assay; type: biochemical; conditions: PDK1 Kinase Alpha Screen Assay; read-out: PDK1 IC50
T1 sequence (O15530 1-556): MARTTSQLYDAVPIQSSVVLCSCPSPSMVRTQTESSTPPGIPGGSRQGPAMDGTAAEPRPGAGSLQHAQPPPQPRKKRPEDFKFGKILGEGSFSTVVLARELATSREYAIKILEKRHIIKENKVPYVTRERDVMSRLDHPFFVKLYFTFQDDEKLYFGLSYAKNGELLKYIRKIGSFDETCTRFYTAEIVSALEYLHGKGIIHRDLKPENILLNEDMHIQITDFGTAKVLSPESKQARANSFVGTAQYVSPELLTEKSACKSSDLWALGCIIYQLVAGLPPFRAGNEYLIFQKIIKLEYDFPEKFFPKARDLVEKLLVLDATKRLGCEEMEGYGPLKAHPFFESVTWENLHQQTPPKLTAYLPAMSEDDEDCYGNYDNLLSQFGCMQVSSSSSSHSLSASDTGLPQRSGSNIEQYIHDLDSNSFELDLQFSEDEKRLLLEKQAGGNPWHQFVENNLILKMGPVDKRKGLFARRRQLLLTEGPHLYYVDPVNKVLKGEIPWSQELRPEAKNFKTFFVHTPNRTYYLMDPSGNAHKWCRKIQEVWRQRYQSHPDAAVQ
Method in brief: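 Test compounds were incubated with PDK1 kinase, 10 uM ATP and 50 nM biotinylated peptide substrate for 3-18 hours at pH 7.5 with 2.5% DMSO. Peptide phosphorylation was then detected by AlphaScreen proximity luminescence using a phospho-(Ser/Thr) PKA substrate antibody.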

A2780 cells = assay: Cell Proliferation Assay (Cell Titer Glo), A2780; type: cell-based; conditions: Homo sapiens; cell proliferation, A2780 cells; read-out: CPEC50 A2780
Method in brief: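 Cells seeded at 1000/well, allowed to adhere 3-5 h, then exposed to DMSO-dissolved compounds for 3 days at 37° C., 5% CO2. Medium replaced before Cell Titer Glo addition; luminescence read after 10 min.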

| Structure (SMILES) | pIC50 (PDK1 kinase) | pEC50 (A2780 cells) |
| --- | --- | --- |
| CC(C)N1CCC(Oc2ccc3cnc(Nc4ccc(S(=O)(=O)N5CCOCC5)cc4)nc3c2)CC1 [Compound 874, 7-(1-isopropylpiperidin-4-yloxy)-N-(4-(morpholinosulfonyl)phenyl)quinazolin-2-amine] | > 5.30 | > 5.30 |
| NS(=O)(=O)c1ccc(Nc2ncc3ccc(-c4ccc5c(c4)CCNC5=O)c(OC4CCNCC4)c3n2)cc1 [Compound 875, 4-(7-(1-oxo-1,2,3,4-tetrahydroisoquinolin-6-yl)-8-(piperidin-4-yloxy)quinazolin-2-ylamino)benzenesulfonamide] | > 5.30 | 5.00 to 5.30 |
| CC(C)Cn1cc(-c2ccc3cnc(Nc4ccc(S(N)(=O)=O)cc4)nc3c2OC2CCNCC2)cn1 [Compound 876, 4-(7-(1-isobutyl-1H-pyrazol-4-yl)-8-(piperidin-4-yloxy)quinazolin-2-ylamino)benzenesulfonamide] | > 5.30 | > 5.30 |
| NS(=O)(=O)c1ccc(Nc2ncc3ccc(-c4cnccn4)c(OC4CCNCC4)c3n2)cc1 [Compound 877, 4-(8-(piperidin-4-yloxy)-7-(pyrazin-2-yl)quinazolin-2-ylamino)benzenesulfonamide] | > 5.30 | > 5.30 |
| NS(=O)(=O)c1ccc(Nc2ncc3ccc(-c4ccc(NCCN5CCCC5)nc4)cc3n2)cc1 [Compound 878, 4-(7-(6-(2-(pyrrolidin-1-yl)ethylamino)pyridin-3-yl)quinazolin-2-ylamino)benzenesulfonamide] | > 5.30 | > 5.30 |
| CN1CCN(c2ccc(-c3ccc4cnc(Nc5ccc(S(N)(=O)=O)cc5)nc4c3)cn2)CC1 [Compound 879, 4-(7-(6-(4-methylpiperazin-1-yl)pyridin-3-yl)quinazolin-2-ylamino)benzenesulfonamide] | > 5.30 | > 5.30 |

Other lines, results leading:

| pIC50 (PDK1 kinase) | pEC50 (A2780 cells) | Structure (SMILES) |
| --- | --- | --- |
| > 5.30 | 5.00 to 5.30 | NS(=O)(=O)c1ccc(Nc2ncc3ccc(-c4ccc(N5CCCC5)nc4)cc3n2)cc1 [Compound 880, 4-(7-(6-(pyrrolidin-1-yl)pyridin-3-yl)quinazolin-2-ylamino)benzenesulfonamide] |
| > 5.30 | > 5.30 | NS(=O)(=O)c1ccc(Nc2ncc3ccc(-c4ccc(N5CCOCC5)nc4)cc3n2)cc1 [Compound 881] |
| > 5.30 | > 5.30 | CN1CCN(c2cc(-c3ccc4cnc(Nc5ccc(S(N)(=O)=O)cc5)nc4c3)ccn2)CC1 [Compound 882, 4-(7-(2-(4-methylpiperazin-1-yl)pyridin-4-yl)quinazolin-2-ylamino)benzenesulfonamide] |
| > 5.30 | > 5.30 | CC(C)CCn1cc(-c2ccc3cnc(Nc4ccc(S(N)(=O)=O)cc4)nc3c2)cn1 [Compound 883, 4-(7-(1-isopentyl-1H-pyrazol-4-yl)quinazolin-2-ylamino)benzenesulfonamide] |
| > 5.30 | 5.00 to 5.30 | NC(=O)c1ccc(-c2cc(F)cc3cnc(Nc4ccc(S(N)(=O)=O)cc4)nc23)cc1 [Compound 886, 4-(6-fluoro-2-(4-sulfamoylphenylamino)quinazolin-8-yl)benzamide] |
| > 5.30 | 5.00 to 5.30 | NS(=O)(=O)c1ccc(Nc2ncc3cccc(-c4ccc5c(c4)CCNC5=O)c3n2)cc1 [Compound 887, 4-(8-(1-oxo-1,2,3,4-tetrahydroisoquinolin-6-yl)quinazolin-2-ylamino)benzenesulfonamide] |
| > 5.30 | > 5.30 | NS(=O)(=O)c1ccc(Nc2ncc3cc(F)cc(-c4ccc(N5CCNC(=O)C5)nc4)c3n2)cc1 [Compound 889, 4-(6-fluoro-8-(6-(3-oxopiperazin-1-yl)pyridin-3-yl)quinazolin-2-ylamino)benzenesulfonamide] |
| > 5.30 | 5.00 to 5.30 | NS(=O)(=O)c1ccc(Nc2ncc3cc(F)cc(-c4ccc(N5CCCC5)nc4)c3n2)cc1 [Compound 890, 4-(6-fluoro-8-(6-(pyrrolidin-1-yl)pyridin-3-yl)quinazolin-2-ylamino)benzenesulfonamide] |
